From PMC9228468, “Relevance of Therapeutic Drug Monitoring of Tyrosine Kinase Inhibitors in Routine Clinical Practice: A Pilot Study” (Pharmaceutics, 2022)

Key:
[1] = cited from earlier work
[2] = Therapeutic drug monitoring: plasma levels by HPLC-UV, dose-normalized plasma concentrations; assay type: in vivo, human
Experimental: (§1) Monitoring was carried out in all cases after at least fifteen days from the start of treatment, when the plasma levels of the drug were considered at steady state. Blood samples were extracted just before ingestion of the tablet/s and at different times after ingestion. The drug was administered in the fasted state and patients were told they could eat food after the second blood sample was drawn. Sampling times, which are defined for each drug in Table 1, were selected based on the optimal sampling theory and pharmacokinetic models previously published in the scientific literature. […] The total blood volume extracted was between 4 and 5 mL for each sample. All samples were centrifuged after extraction at 3500 r.p.m. for 10 min at room temperature and the plasma obtained was frozen at −80 °C until bioanalysis.
Bioanalysis was carried out using high-performance liquid chromatography (HPLC) coupled with ultraviolet (UV) detection.
As the stationary phase, an Ultrabase® C18 chromatographic column, 4.6 mm in diameter by 150 mm in length, made of stainless steel and filled with a C18 reversed-phase siliceous substrate with a particle size of 5 µm, was used. A mixture of 40% of 0.02 M ammonium acetate, pH = 7, and 60% acetonitrile: methanol at a ratio of 70:30 (v/v) was used as the mobile phase. The linearity of the technique included a concentration range of 0.05–7.5 µg/mL. The limit of quantification was 0.5 µg/mL. Solid–liquid extraction was used and the analysis time was 9 min.
The stationary phase used was an Ultrabase® C18 chromatographic column, 4.6 mm in diameter by 150 mm in length, made of stainless steel and filled with a C18 reversed-phase siliceous substrate with a particle size of 5 µm. The mobile phase used was a 40% mixture of 0.02 M ammonium acetate, pH = 7, and 60% acetonitrile: methanol at a ratio of 70:30 (v/v). The linearity of the technique included a concentration range of 0.05–5 µg/mL. The limit of quantification was 0.5 µg/mL. Solid–liquid extraction was used and the analysis time was 10 min.
(§2) The stationary phase used was a Kromasil® C18 chromatographic column, 4.6 mm in diameter by 150 mm in length, made of stainless steel and filled with a C18 reversed-phase siliceous substrate with a particle size of 5 µm. The mobile phase used was a mixture of acetonitrile and 0.02 M ammonium acetate, pH = 3.5, at a ratio of 53:47 (v/v). The linearity of the technique included a concentration range of 0.02–10 µg/mL. The limit of quantification was 0.2 µg/mL. Liquid–liquid extraction was used and the analysis time was 12 min [51].
as §2, with “0.1–20” for “0.02–10”, “0.1” for “0.2”, “[52].” for “[51].”
The program was compiled with the DIGITAL Visual Fortran version 6.6C program. The graphics were made with the S-Plus 6.1 Professional Edition program for Windows (Insightful, Seattle, WA, USA). A one-compartment pharmacokinetic model with first-order absorption and elimination kinetics was selected to describe erlotinib plasma concentrations, as performed previously by other authors. The fixed-effect parameters estimated by the model were V (volume of distribution, L), CL (plasma clearance, L/h) and Ka (absorption constant). The model included plasma ALT concentration and age as covariates in CL, and weight in V.
The model was parameterized in terms of D1 (zero-order absorption duration), V and CL, and included the plasma concentration of α 1-acid glycoprotein as a covariate in CL. […]

[3] = TDM-guided dose adjustment recommendations per monitored cycle; assay type: in vivo, human; settings: for monitored cycles with recommendation to decrease the dose: concentrations above therapeutic range; for monitored cycles with recommendation to increase the prescribed dose: concentrations below target therapeutic range; for monitored cycles with recommendation to maintain the current dose: concentrations within therapeutic range; for monitored cycles with recommendation to suspend/suppress the drug: in vivo
Experimental: Patients included in this study received drugs at doses previously established by their doctors, according to data sheet indications and clinical judgment. In all cases, drug dose was prescribed before the patient enrolled onto this study and was not affected by this study prior to enrollment.
as §1

[4] = Survival analysis (Kaplan-Meier, PFS and OS); assay type: in vivo, human; settings: real-world cancer patients with TDM
Experimental: (§3) Patients’ medical records were reviewed with the aim of studying all possible factors related to the patient and the medication that may influence the evolution of the plasma concentrations of TKIs. Sociodemographic and anthropometric, pharmacological treatment, clinical, toxicity and therapeutic drug monitoring data were collected. Treatment response was determined according to the […]. Adverse events were recorded by grade according to the Common Terminology Criteria for Adverse Events version 3.0 (CTCAE v 3.0).
To assess the relationship between treatments protocols and disease progression or mortality, a Kaplan–Meier survival curve was plotted.

[5] = cited from earlier work; remark: listed apart in the source
[6] = Groups of patients according to exposure and toxicity; assay type: in vivo, human; settings: for % patients, Group 1 / % patients, Group 3: Drug concentrations above target level: No; for % patients, Group 1 / % patients, Group 2: Toxicities: No; for % patients, Group 3 / % patients, Group 4: Toxicities: Yes; for % patients, Group 2 / % patients, Group 4: Drug concentrations above target level: Yes
[7] = Incidence of toxicity (CTCAE grades), first vs last monitored cycle; assay type: in vivo, human; settings: for Patients with toxicity: at start of treatment; for Toxicity: RI G1: renal insufficiency grade 1 (IR G1 for sorafenib); for Toxicity: RI G2: renal insufficiency grade 2
Experimental: as §3
To compare the variation in categorical variables (rash, diarrhea, fatigue, abdominal pain, hypertension, and mucositis) between the first and the last monitored cycle, the non-parametric chi-square test was performed.

[8] = phase II study of 57 NSCLC patients
[9] = last monitored cycle, after TDM and dose adjustments
[10] = last monitored cycle, after TDM and dose adjustment

Compound | mean interpatient variability in dose-normalized plasma concentrations (CV) ([2]; first monitored cycle) [%] | mean interpatient variability in dose-normalized plasma concentrations (CV) [2, 9] [%] | monitored cycles with recommendation to decrease the dose [3] [%] | monitored cycles with recommendation to increase the prescribed dose [3] [%] | monitored cycles with recommendation to maintain the current dose [3] [%] | monitored cycles with recommendation to suspend/suppress the drug [3] [%] | Overall Survival, Median [4] [Months] | Progression-Free Survival, Median [4] [Months] | % patients, Group 1 [6] [%] | % patients, Group 3 [6] [%] | % patients, Group 2 [6] [%] | % patients, Group 4 [6] [%] | Patients with toxicity [7] | Toxicity: Anemia G1 ([7]; in vivo) | Toxicity: Anemia G2 ([7]; in vivo) | Toxicity: Diarrhea G2 ([7]; in vivo) | Toxicity: Mucositis G3 ([7]; in vivo) | Toxicity: Skin rash G1 ([7]; in vivo) | patients who developed toxicity at the start of treatment ([7]; in vivo) [%] | Toxicity: RI G1 [7] | other results
C#Cc1cccc(Nc2ncnc3cc(OCCOC)c(OCCOC)cc23)c1 [Erlotinib, erlotinib] | 46.2 | 44 | 3.6 | 38.2 | 54.5 | 3.6 | 32 | 8 | 18.2 | 22.7 | 13.6 | 45.5 | 9 (45.4) n. (%) | 4 (18.1) n. (%) | 2 (9.1) n. (%) | 3 (13.6) n. (%) | 1 (4.5) n. (%) | 5 (22.7) n. (%) | 45.4 | 9 (45.4) n. (%) | OS ([1]; 26 NSCLC patients): 16.9 months; PFS ([1]; 26 NSCLC patients): 6.3 months; OS of patients with grade 1 rash [1, 8]: 8.5 months; OS of patients with grade 2 rash [1, 8]: 19.6 months; OS of patients without rash [1, 8]: 1.5 months; fraction of a single dose eliminated in the urine [5]: 9%; patients with plasma concentrations below the target ([5]; target 500 mg/L, lung cancer patients): 11.1%; patients with grade 2 skin rash ([7]; first monitored cycle): 13.6%; patients with grade 3 mucositis ([7]; first monitored cycle): 4.5%; patients with grade 3 thrombocytopenia ([7]; first monitored cycle): 4.5%; Toxicity: Fatigue G2 ([7]; in vivo): 2 (9.1) n. (%); Toxicity: Skin rash G2 ([7]; in vivo): 3 (13.6) n. (%); Toxicity: Skin rash G3 ([7]; in vivo): 3 (13.6) n. (%); analytical parameters related to toxicity and defined toxicities, first vs last monitored cycle ([7]; in vivo): no significant differences; patients with grade 2 skin rash ([7]; last monitored cycle): 14.3%; patients with grade 3 mucositis ([7]; last monitored cycle): 0%; patients with grade 3 rash ([7]; last monitored cycle): 7.1%; patients with grade 3 thrombocytopenia ([7]; last monitored cycle): 0%; Toxicity: RI G2 [7]: 4 (18.1) n. (%); Toxicity: Thromb. G3 ([7]; trombopenia grade 3): 1 (4.5) n. (%)
Cc1ccc(NC(=O)c2ccc(CN3CCN(C)CC3)cc2)cc1Nc1nccc(-c2cccnc2)n1 [Imatinib, imatinib] | 48.91 | 50.84 | – | – | – | – | – | – | – | – | – | – | – | – | – | – | – | – | – | – | mean interpatient variability in dose-normalized plasma concentrations (CV) ([2]; first monitored cycle, listed as imatinib): 48.9%; mean interpatient variability in dose-normalized plasma concentrations (CV) ([2]; last monitored cycle, after TDM and dose adjustments, listed as imatinib): 50.8%
CS(=O)(=O)CCNCc1ccc(-c2ccc3ncnc(Nc4ccc(OCc5cccc(F)c5)c(Cl)c4)c3c2)o1 [Lapatinib, lapatinib] | 60.7 | 56 | 8.6 | 14.3 | 68.6 | 8.6 | 46 | 8 | 6.2 | 18.7 | 6.2 | 69.5 | 12 (75.0) n. (%) | 3 (18.7) n. (%) | 2 (12.5) n. (%) | 1 (6.2) n. (%) | 1 (6.2) n. (%) | 1 (6.2) n. (%) | 75 | 6 (37.5) n. (%) | increase in AUC with high-fat meals [5]: more than 3 fold; interpatient variability in exposure, AUC [5]: 42–117%; interpatient variability in exposure, Ctrough [5]: 55–97%; t1/2 in severe liver failure relative to normal liver function [5]: 3 fold; increase of mean AUC in patients with severe liver failure ([5]; vs normal liver function): more than 60%; toxicities detected ([7]; after performing TDM): 5 cases; toxicities detected ([7]; first monitored cycle): 25 cases; reduction of toxicity events by TDM ([7]; first vs last monitored cycle): 80%; Toxicity: Anemia G3 ([7]; in vivo): 1 (6.2) n. (%); Toxicity: Diarrhea G1 ([7]; in vivo): 2 (12.5) n. (%); Toxicity: Diarrhea G3 ([7]; in vivo): 1 (6.2) n. (%); Toxicity: Pain ([7]; in vivo): 2 (12.5) n. (%); Toxicity: Skin rash G3 ([7]; in vivo): 1 (6.2) n. (%); analytical parameters related to toxicity and defined toxicities, first vs last monitored cycle ([7]; in vivo): no significant differences; Toxicity: Neutr. G3 ([7]; neutropenia grade 3): 2 (12.5) n. (%); Toxicity: RI G2 [7]: 2 (12.5) n. (%)
CNC(=O)c1cc(Oc2ccc(NC(=O)Nc3ccc(Cl)c(C(F)(F)F)c3)cc2)ccn1 [Sorafenib, sorafenib] | 89.7 | 72.5 | 6.9 | 17.2 | – | 3.4 | 9 | 9 | – | 9.1 | 54.4 | 9.1 | – | 2 (18.2) n. (%) | 1 (9.1) n. (%) | 1 (9.1) n. (%) | – | – | 63.3 | 2 (18.2) n. (%) | dose above which gastrointestinal absorption saturates [5]: greater than 800 mg; variability in exposure between patients, AUC [5]: 12–117%; variability in exposure between patients, apparent oral Cl [5]: 13–80%; Toxicity: Abdominal pain ([7]; in vivo): 2 (18.2) n. (%); patients with anemia [7, 10]: 50%; patients with grade 3 neutropenia [7, 10]: 25%; Toxicity: Thromb. G1 ([7]; trombopenia grade 1): 1 (9.1) n. (%)
Cc1cn(-c2cc(NC(=O)c3ccc(C)c(Nc4nccc(-c5cccnc5)n4)c3)cc(C(F)(F)F)c2)cn1 [nilotinib] | – | – | – | – | – | – | – | – | – | – | – | – | – | – | – | – | – | – | – | – | increase in AUC with high-fat meals [5]: up to 80%
Cc1ccc(Nc2nccc(N(C)c3ccc4c(C)n(C)nc4c3)n2)cc1S(N)(=O)=O [pazopanib] | – | – | – | – | – | – | – | – | – | – | – | – | – | – | – | – | – | – | – | – | AUC when administered with food compared to fasted state [5]: doubled; dose above which plasma AUC does not increase ([5]; solubility limitations in the digestive tract): greater than 800 mg
